Data as given in BindingDB's records for doi:10.1021/acs.jmedchem.7b01322 (National Health Research Institutes, 2018).
pEC50: −log10 of the molar value.

Experiment: Antagonist activity at CXCR4 in human CCRF-CEM cells assessed as inhibition of CXCL12-induced CXCR4+ cell migration pre-incubated for 10 mins before CXCL12 addition and measured after 2.5 hrs by flow cytometric analysis

pEC50: 7.85
Compound: Cc1cc(NC2CCN(C(=O)CCNCC(=O)O)CC2)nc(NCc2cn(CCCNCCCNC3CCCCC3)nn2)n1
